We go through two molecules from EP0986381B1, “USE OF DITERPENES LIKE HYPOESTOXIDES FOR THE MANUFACTURE OF A MEDICAMENT FOR IMMUNOSUPPRESSION, ANTICANCER AND ANTIVIRAL TREATMENT” (Immune Modulation, Inc., priority 1997, dated 1998).

Series [1] concerns one-way MLR-generated human T-lymphocyte-mediated cytolysis. The experiment in a line: Cytolysis by CTLs generated in one-way MLR, 51Cr-release assay. Type of series: cell-based. The note with it: T-cell, 1.0 µg/mL JO-4 during 5-7 day one-way MLR, four hour 51Cr-release, read-out: inhibition of the lytic capability of cytotoxic T-cells. The text has this:
The "one-way MLR" was set up in tissue culture flasks with mononuclear cells from two different donors as in the "two-way MLR" described above. However, in "one-way MLR", one of the two mononuclear leukocyte populations was rendered incapable of proliferation by treatment with mitomycin C, an antimitotic drug, prior to culture. In this "one-way MLR", the treated cells served exclusively as stimulators and the untreated cells, still capable of proliferation, served as the responders. The responder cells, during a 5-7 day culture period, expressed the CD8+ phenotype but not the CD4+. These CD8+ cells served exclusively as cytolytic T lymphocytes (CTLs) which lyse target cells from the same individual as the original stimulator cell population. In transplantation, these MHC-restricted cytotoxic CD8+ T-cells lyse MHC disparate donor tissue targets, leading to graft rejection (Abbas, A.K., eds., 1994, 2nd ed., Cellular and Molecular Immunology, W.B. Saunders Co., USA; Imagawa, D.K., et al., in Aggarwal, B.B., et al., eds., 1995, Human Cytokines: Their role in Disease and Therapy, Blackwell Science, Inc., Cambridge, MA).
Mononuclear cells of one donor were first treated with mitomycin C (Sigma Chem. Co., St. Louis, MO) (50 µg/50 x 10^6 cells) in 15 mL tubes wrapped in aluminum foil and incubated in a 37°C water bath for 1 hr. […]

The test system of the next series is HSV-1. The experiment in a line: In vitro HSV-1 replication assay, Hybriwix Probe Systems. The class given is cell-based, Herpes simplex virus. The note with it: Human alphaherpesvirus 1, 48 h, two days, African green monkey kidney cells. The method, then: The antiviral activity of the drug was determined using the Hybriwix™ Probe Systems (Herpes Antiviral Susceptibility Test kit: Diagnostic Hybrids, Inc., Athens, OH). Briefly, either HSV-1 or HSV-2 isolates (ATTC, Rockville, MD) were pre-adsorbed at 37°C and 5% CO2 in a humidified incubator for 60 minutes on African green monkey Kidney cells in a 24-well flat-bottom plate. Following pre-adsorption, the viral inoculum was removed and the growth medium containing various concentrations of appropriate drug was placed in appropriate wells. The culture was continued for 48 hours for the amplification of the virus. Quantification of the HSV DNA present in each well was determined by the nucleic acid hybridization method. The cells and/or virus were lysed with DNA wicking agent and the single-stranded DNA was immobilized on a Hybriwix™ filter by a vertical capillary absorption of the wicking agent/DNA solution. The amount of HSV target DNA from each well was determined using radioactive (I^125)-HSV DNA probe containing genetic sequences, which are homologous to HSV-1 or HSV-2 sequences. The amount of radioactivity present on the Hybriwix™ was dependent upon the amount of HSV DNA present after culture, and was determined in a gamma counter (Packard Instrument Co., Meriden, CT).

Series [2] can be described thus: Colorimetric MTT cytotoxicity assay, HUVEC. Type of series: cell-based. The note with it: human, read-out: IC50 concentration (cytotoxicity). The procedure:
(§1) The following materials and methods were employed in the non-limiting Examples set out below. Tumor cells: Human cervical epitheloid carcinoma (HeLa), human renal clear cell carcinoma (CAKI-1), human malignant melanoma (RPMI-7951) and mouse malignant melanoma (B16-F1) were procured from ATCC (Rockville, MD) and maintained in vitro with MEM medium (Mediatech, Inc., Herndon, VA) supplemented with 10% heat-inactivated fetal bovine serum (American Qualex, San Clemente, CA), 10mM glutamine, 100 U/ml penicillin, and 100 µg/ml streptomycin (Sigma Chemicals, Saint Louis, MO) (complete medium). […] Cell viability was assessed by trypan blue dye exclusion test and the cell number was adjusted to required concentration. Colorimetric MTT assay: Cytotoxic effects of the hypoestoxide compounds of formulas I and II (JO-4A) were determined in vitro by a colorimetric assay (Mosmann, T., J. Immunol. Methods, 65: 55-63, 1983). […] Mixing with a multichannel pipetter dissolved the dark blue crystals and the absorbance was measured at 545-650 nm using an ELISA plate reader. […] The tumors were measured with a microcaliper, and the tumor volume was calculated by the formula: Length x width x height x 0.5236 (Jungwirth, A. et al., Proc. Natl. Acad. Sci. USA, 94:5810-5813, 1997). […]
A general note: Tetrazolium assays rely on reduction of a dye to a coloured formazan, in cell work by metabolically active cells.

For series [3], the system named is human malignant melanoma (RPMI-7951). As to the kind of experiment: Colorimetric MTT cytotoxicity assay, RPMI-7951. Type of series: cell-based. The note with it: RPMI-7951, 72 hours. The procedure: as §1
Series [4] deals with human cervical epitheloid carcinoma (HeLa) cells. As to the kind of experiment: Colorimetric MTT cytotoxicity assay, HeLa. Type of series: cell-based. The note with it: 72 hours, read-out: IC50 (drug concentration capable of inducing 50% cytotoxicity). The method, then:
as §1

The term inhibition denotes how much of the control response was suppressed. `C=C1C(=O)C[C@H]2C[C@@H]3O[C@@]3(C)CC[C@@H]3O[C@@]3(C)C[C@@H](OC(C)=O)[C@H]1C2(C)C` [JO-4, hypoestoxide]: the inhibition at 1 µg/mL in series [1] was 82%. Besides, the inhibition at 3.125 µM with HSV-1 (3.125 µM) worked out at 53%. This molecule also came in with an inhibition at 12.5 µM in the series with HSV-1 (12.5 µM) of 60%. The IC50 in the series with HSV-1 (read-out: IC50 dose on HSV-1 inhibition) is roughly 3.12 µM.
With `C=C1C(=O)CC2CC3OC3(C)CCC3OC3(C)CC(O)C1C2(C)C` (stereo not shown) [JO-4A], the CC50 at 72 h in series [2] fell in the range of 25 to 50 µM. The IC50 in series [3] and in series [4] was 10 to 12.5 µM throughout.
